Where “and” joins values, the source holds several entries; their conditions need not be identical. Equal entries are not always repeated.
Experiments:
Kir6.2/SUR2A = molecular target: T1, Kir6.2/SUR2A (Homo sapiens, UniProt O60706+Q14654); assay: Cloned cardiac ion channel patch clamp, Kir6.2/SUR2A; format: cell-based
T1 construct: Andrew Tinker, UCL; host or cells: HEK293

Kv1.7 = Kv1.7 (Homo sapiens, UniProt Q96RP8); assay: Cloned cardiac ion channel electrophysiology, Kv1.7; format: cell-based
Procedure: Table S7-1. Table detailing composition (in mM) of external experimental assay solutions […]
%Inhibition = (1 − IIntervention/IControl) × 100
Equation 1 – Percentage Inhibition
Inhibition of current (or leak-subtracted current) was calculated from steady-state current recorded in the absence (IControl) and presence of test-article (IIntervention).
Equation 2 – Concentration-response curve
Concentration-response data were fitted with a sigmoidal function of the form above, where YMin and YMax represent maximum and minimum current inhibition which were constrained to 100 and 0 respectively and x is the Log[DRUG (M)] based on GraphPad Prism analysis. % inhibition was calculated as in Equation 1.
(also on this page, place not known: […] […] + −+= − HnxLogIC MinMax Min YYYInhibition )( 50101 )(% inhi bition Log[ DRUG analysis .) […]

IKACh = assay: In vivo ECG, carbachol-induced heart rate slowing in anesthetized mice; details: 40 μl of 240 μM via jugular vein
Procedure: We tested the in vivo effects of BP-G1 versus those of BP-G1(SR) on heart rate in anesthetized adult mice (Fig. 8). ECG was continuously recorded. Panel A is the ECG showing that after carbachol (300 μl of 200 μM) was administered, i.p. (red mark), the heart decelerated, with a visible RR prolongation. About 10 min after carbachol injection, BP-G1 was delivered via the jugular vein (40 μl of 240 μM) (green mark). Within 5 min, there was a reversal of carbachol’s effects on the heart rate. Panel B is a control mouse showing heart rate slowing after carbachol administration (red mark).
Mice were anesthetized (1.5% isofluorane), and a 1.2 French octapolar catheter (Millar) with a drug delivery port was placed transvenously, through the jugular vein, into the right atrium. Continuous ECG was recorded using the Animal Bio Amp and PowerLab 4/35 Advanced Instruments apparatus. […] Saline control at the same volume was performed. Results are averages ±SD.

[1] = Plasma protein binding, rat; format: in vitro ADME; details: read-out: Rat Plasma Protein Binding (PPB) (converted)
[2] = molecular target: T2, Non-steroid nuclear receptors PPARγ (Homo sapiens, UniProt P37231); assay: Radioligand binding, [3H]rosiglitazone; details: read-out: % Specific Binding at 10 µM
T2 construct: purchased; host or cells: E. coli

Kir3.1/4 channel = molecular target: T3, Kir3.1/4 channel (Homo sapiens, UniProt P48544+P48549); assay: Whole-cell patch clamp, HEK293T cells, Kir3.1/4; format: cell-based; set-up: expressed in transfected cells; details: whole-cell patch-clamp HEK-293 cells; read-out: IC50, inhibition of Kir3.1/4
T3 sequence (P48549 1-501): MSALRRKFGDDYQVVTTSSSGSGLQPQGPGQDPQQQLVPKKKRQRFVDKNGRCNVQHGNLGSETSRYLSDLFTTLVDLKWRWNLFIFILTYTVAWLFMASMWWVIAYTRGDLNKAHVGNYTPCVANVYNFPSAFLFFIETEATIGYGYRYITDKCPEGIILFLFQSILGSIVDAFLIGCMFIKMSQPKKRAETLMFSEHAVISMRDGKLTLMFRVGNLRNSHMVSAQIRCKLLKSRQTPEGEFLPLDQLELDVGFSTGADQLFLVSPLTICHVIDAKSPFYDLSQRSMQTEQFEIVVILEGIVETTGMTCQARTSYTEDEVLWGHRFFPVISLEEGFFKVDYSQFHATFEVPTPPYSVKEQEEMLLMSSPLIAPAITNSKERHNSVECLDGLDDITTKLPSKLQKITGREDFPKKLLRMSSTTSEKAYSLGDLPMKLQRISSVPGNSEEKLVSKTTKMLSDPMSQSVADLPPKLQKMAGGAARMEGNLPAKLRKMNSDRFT
T3 sequence (P48544 1-419): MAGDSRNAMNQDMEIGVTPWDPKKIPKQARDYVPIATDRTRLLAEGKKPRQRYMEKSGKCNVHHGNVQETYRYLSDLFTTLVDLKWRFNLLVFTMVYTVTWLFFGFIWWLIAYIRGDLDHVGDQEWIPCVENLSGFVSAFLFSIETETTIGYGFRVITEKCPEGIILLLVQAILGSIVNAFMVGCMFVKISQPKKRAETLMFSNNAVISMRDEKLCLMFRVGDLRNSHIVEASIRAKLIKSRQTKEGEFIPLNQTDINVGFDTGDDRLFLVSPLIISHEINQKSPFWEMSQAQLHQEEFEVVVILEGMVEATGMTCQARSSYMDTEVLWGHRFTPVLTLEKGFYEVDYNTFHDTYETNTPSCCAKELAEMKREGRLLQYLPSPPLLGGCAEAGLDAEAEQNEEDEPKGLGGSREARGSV
Procedure: For the experiments shown in Figure 1, G and H, whole-cell currents were recorded with an Axopatch 200B amplifier and pCLAMP software (Molecular Devices). HEK293T cells were transiently transfected with 1 μg Kir3.1 together with 1 μg Kir3.2 or 1 μg Kir3.4 DNA, using polyethylenimine (PEI). The cells were maintained in DMEM supplemented with 10% Fetal Bovine Serum and 1% Penicillin/Streptomycin at 37 °C in a 5% CO2 humidified atmosphere and were studied 24 to 48 h after transfection. HEK293T cells were bathed in Low K^+ (LK) solution (135 mM NaCl, 5 mM KCl, 1.2 mM MgCl2, 1.5 mM CaCl2, 8 mM Glucose, 10 mM HEPES with pH 7.4). High K^+ (HK) solution (5 mM NaCl, 135 mM KCl, 1.2 mM MgCl2, 1.5 mM CaCl2, 8 mM Glucose, 10 mM HEPES with pH 7.4) was perfused to establish basal currents. BP-G1 in HK solution was perfused sequentially in a concentration response manner prior to applying 5 mM BaCl2 in HK to identify remaining barium-insensitive leak currents and subtract them from the current records. […] Cells used in the experiments were selected based on eGFP fluorescence. A ramp protocol from −80 mV to +80 mV was used and currents were recorded at −80 mV in the whole-cell mode (using the Strathclyde Electrophysiology Software from the University of Strathclyde, Glasgow). The patch-clamp data were analyzed offline in pClamp (Molecular Devices) and OriginLab software. […]

T2 sequence (P37231 whole entry): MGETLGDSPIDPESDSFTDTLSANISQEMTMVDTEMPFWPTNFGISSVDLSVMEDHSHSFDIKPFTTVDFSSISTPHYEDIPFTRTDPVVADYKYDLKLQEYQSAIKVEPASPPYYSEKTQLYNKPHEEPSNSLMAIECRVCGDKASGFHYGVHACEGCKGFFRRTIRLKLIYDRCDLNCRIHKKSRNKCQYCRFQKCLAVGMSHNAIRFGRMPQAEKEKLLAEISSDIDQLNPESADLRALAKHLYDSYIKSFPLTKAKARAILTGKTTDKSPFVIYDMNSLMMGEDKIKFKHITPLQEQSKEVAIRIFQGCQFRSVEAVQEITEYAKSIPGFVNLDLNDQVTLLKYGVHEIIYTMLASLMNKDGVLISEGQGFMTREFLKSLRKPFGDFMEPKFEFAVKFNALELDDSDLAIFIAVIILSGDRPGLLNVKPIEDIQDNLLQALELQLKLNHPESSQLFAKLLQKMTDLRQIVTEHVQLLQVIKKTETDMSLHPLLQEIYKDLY
Sequence of Kv1.7 (Q96RP8 whole entry): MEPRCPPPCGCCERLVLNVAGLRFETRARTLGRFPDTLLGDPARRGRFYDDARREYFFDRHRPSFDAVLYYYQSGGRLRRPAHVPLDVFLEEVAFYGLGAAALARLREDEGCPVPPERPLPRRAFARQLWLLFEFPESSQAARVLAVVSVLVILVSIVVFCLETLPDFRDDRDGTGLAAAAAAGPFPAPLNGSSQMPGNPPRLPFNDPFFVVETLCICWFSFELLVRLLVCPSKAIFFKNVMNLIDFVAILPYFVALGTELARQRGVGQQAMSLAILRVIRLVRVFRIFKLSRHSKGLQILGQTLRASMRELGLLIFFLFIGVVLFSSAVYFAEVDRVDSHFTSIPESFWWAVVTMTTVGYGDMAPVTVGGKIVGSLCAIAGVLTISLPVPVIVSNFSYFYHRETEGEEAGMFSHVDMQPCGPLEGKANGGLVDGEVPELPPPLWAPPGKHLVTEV
T1 sequence (Q14654 whole entry): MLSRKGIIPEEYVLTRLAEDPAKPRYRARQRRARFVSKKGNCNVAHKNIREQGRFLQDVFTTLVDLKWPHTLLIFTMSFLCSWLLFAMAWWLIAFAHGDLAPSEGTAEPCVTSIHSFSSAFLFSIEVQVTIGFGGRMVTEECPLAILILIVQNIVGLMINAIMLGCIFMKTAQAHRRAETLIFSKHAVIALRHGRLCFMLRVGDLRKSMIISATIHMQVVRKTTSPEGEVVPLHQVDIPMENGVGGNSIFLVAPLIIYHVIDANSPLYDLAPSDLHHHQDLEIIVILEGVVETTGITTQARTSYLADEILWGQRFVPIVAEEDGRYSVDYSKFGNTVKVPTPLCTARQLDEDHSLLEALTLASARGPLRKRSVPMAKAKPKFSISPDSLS
T1 sequence (O60706 whole entry): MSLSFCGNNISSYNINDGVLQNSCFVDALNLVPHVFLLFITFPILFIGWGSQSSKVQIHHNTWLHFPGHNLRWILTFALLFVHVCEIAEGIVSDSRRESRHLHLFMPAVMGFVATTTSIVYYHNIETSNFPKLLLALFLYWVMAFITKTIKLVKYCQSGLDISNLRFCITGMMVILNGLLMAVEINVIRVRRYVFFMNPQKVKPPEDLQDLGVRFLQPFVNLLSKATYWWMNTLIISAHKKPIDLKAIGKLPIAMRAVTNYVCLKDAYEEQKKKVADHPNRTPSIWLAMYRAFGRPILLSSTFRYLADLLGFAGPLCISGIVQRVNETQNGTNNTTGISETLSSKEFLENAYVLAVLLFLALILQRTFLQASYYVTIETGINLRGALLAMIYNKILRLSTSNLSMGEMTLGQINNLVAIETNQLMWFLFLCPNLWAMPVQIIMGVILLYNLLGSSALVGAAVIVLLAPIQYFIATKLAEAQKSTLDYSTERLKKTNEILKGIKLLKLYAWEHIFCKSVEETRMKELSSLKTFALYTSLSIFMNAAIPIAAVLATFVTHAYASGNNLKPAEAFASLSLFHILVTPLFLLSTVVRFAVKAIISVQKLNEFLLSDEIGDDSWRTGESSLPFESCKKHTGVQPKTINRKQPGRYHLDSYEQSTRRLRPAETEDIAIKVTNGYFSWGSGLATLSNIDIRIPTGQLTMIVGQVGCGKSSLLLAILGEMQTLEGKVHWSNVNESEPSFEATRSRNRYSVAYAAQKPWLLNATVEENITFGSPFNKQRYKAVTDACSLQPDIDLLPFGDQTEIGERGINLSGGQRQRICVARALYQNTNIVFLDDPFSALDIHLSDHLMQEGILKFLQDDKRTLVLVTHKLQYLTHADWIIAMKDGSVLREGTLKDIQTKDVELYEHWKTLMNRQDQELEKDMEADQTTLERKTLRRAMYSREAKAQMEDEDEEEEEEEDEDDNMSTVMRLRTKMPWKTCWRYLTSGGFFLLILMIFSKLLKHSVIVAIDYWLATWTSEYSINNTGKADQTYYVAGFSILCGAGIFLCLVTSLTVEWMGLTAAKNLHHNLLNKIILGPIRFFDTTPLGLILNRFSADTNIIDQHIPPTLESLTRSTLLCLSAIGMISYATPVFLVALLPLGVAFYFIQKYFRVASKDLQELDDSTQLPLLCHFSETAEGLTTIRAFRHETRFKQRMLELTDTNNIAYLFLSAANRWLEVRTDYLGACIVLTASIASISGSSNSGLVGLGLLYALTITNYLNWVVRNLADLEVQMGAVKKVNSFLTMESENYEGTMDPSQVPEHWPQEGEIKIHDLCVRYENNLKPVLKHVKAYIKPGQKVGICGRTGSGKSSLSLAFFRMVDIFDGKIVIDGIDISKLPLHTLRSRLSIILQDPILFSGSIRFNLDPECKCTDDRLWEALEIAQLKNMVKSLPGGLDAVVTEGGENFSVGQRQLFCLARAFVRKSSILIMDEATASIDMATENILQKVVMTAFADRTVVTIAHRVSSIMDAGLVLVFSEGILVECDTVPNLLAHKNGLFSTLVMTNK

Structure (SMILES): Cc1cc(CO)nc2cc3c(cc12)OC(C)(C)[C@H](O)[C@H]3NCCc1ccccc1 [BP-G1, (3R,4S)-7-(hydroxymethyl)-2,2,9-trimethyl-4-(2-phenylethylamino)-3,4-dihydropyrano[2,3-g]quinolin-3-ol]
- IC50 (Kir6.2/SUR2A): > 10 µM
- IC50 (Kv1.7): 7 µM
- time to reversal of carbachol’s effects on the heart rate (IKACh): ≤ 5 min
- RR interval 5 min after compound, given about 10 min after carbachol (IKACh; anesthetized mice, mean ± SD, N = 3): 155.4 ± 5.5 ms
- fraction unbound [1]: 0.11
- inhibition at 10 µM [2]: < 50%
- IC50 (Kir3.1/4 channel): 0.01 to 0.03 µM and 0.0105 µM
